A short description of the data set: Light exposure testing (color difference after light irradiation). The following applies: for Discoloration / Color difference (ΔE): D65 fluorescent lamp, 3570 Lx, exposure dose 1,200,000 Lx·hr, 25° C., room humidity; for Color difference (ΔE): CIELAB, reflected ray measurement; for light-stability (conclusion from Table 2): light exposure test, 1,200,000 Lx·hr. Format: physicochemical. As to the method: Light exposure test of pirfenidone was carried out under the following condition, using “drug substance” obtained by packing 500 mg of milled pirfenidone drug substance in a heat-sealed transparent SP (Striped Package), “compressed drug substance” obtained by statically compressing 300 mg of milled pirfenidone drug substance, “the plain tablets” obtained in the above Example 1, and “the coated tablets” obtained in the above Example 1. […]
light irradiation apparatus: light stability test apparatus (LTL400-D5) (Nagano Science Equipment Mfg. Co., Ltd.) fluorescent light: D65 fluorescent lamp for color comparing and test temperature and humidity: 25° C., room humidity illumination intensity: 3570 Lx […]
coloring difference measure apparatus: Color analyzer TC-1800MK-II measurement method: reflected ray measurement color specification system: CIELAB measurement condition: second degree visual field

Consider `Cc1ccc(=O)n(-c2ccccc2)c1` [Drug substance, 5-Methyl-1-phenyl-2-(1H)-pyridone], for which the Discoloration result was “slight” and the “Color difference (ΔE)” value is 0.73. Also, for the setting “listed as pirfenidone drug substance”, the “light-stability (conclusion from Table 2)” value is given as “remarkable color difference was not observed”.
For the compound `Cc1ccc(=O)n(-c2ccccc2)c1` [Compressed drug substance, 5-Methyl-1-phenyl-2-(1H)-pyridone], the Discoloration result is reported as “remarkable” and the “Color difference (ΔE)” value turned out to be 3.62. In addition, under “listed as pirfenidone compressed drug substance”, the “light-stability (conclusion from Table 2)” value was “have a problem in light-stability”.

These data come from patent US9017722B2, “Pharmaceutical composition containing as an active ingredient 5-methyl-1-phenyl-2-(1H)-pyridone” (Intermune, Inc., priority 2001, dated 2015).
